Measurements taken from patent US20100125059A1, “1-BIARYLAZETIDINONE DERIVATIVE” (Teijin Pharma Limited, priority 2007, published 2010).
Like-named read-outs stand apart in the source and are kept apart here.

Key:
[1] = either alone or in the presence of a statin; cited from earlier work
[2] = test system: hamsters fed a high cholesterol diet; experiment: Measurement of lipid lowering effect in hamsters fed a high cholesterol diet; type: in vivo, Male Golden Syrian hamsters; conditions: Mesocricetus auratus, po, 168 h, gavage once daily, 7 days
Summary of the method: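 Male Golden Syrian hamsters (6/group) on 0.5% cholesterol diet, dosed by gavage once daily in corn oil at 0.01 to 10 mg/kg; serum and liver sampled 4 h after last dose. TC, TG and LDL-C measured enzymatically; effects expressed as % suppression versus control and normal-diet groups.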

Caco-2 cells = experiment: Cholesterol absorption inhibition assay (in vitro), [14C] cholesterol mixed micelles; type: cell-based; conditions: Homo sapiens, 24 hours, read-out: cholesterol absorption inhibitory activity; for inhibition at 12.5 µM: concentration of 12.5 μM
Summary of the method: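 Caco-2 cells cultured 2 weeks, then incubated 24 h at 37° C with [14C] cholesterol mixed micelles (oleate, phosphatidylcholine, taurocholate) plus compound at 0.5 to 25 μM final. Lipids extracted, cholesteryl ester separated by TLC and quantified by imaging plate; inhibition as background-corrected percentage of solvent control.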

[3] = read-out: serum LDL-C lowering effect (suppression rate of an increase in serum LDL-C concentration)
[4] = read-out: serum TC lowering effect (suppression rate of an increase in serum TC concentration)
[5] = read-out: liver TC lowering effect (suppression rate of an increase in liver TC concentration)
[6] = read-out: serum TG lowering effect (serum TG lowering rate)

O=C1[C@H](CC[C@H](O)c2ccc(F)cc2)[C@@H](c2ccc(O)cc2)N1c1ccc(F)cc1 [Ezetimibe, (3R,4S)-3-[(3S)-3-(4-fluorophenyl)-3-hydroxypropyl]-1-(4-fluorophenyl)-4-(4-hydroxyphenyl)azetidin-2-one]
LDL cholesterol-lowering effect [1]: 15-20%

O=C1[C@H](SC[C@H](O)c2ccc(F)cc2Cl)[C@@H](c2ccc(O)cc2)N1c1ccc(-c2cccnc2)cc1 [Example 90, (3R,4R)-3-[(2R)-2-(2-chloro-4-fluorophenyl)-2-hydroxyethylthio]-4-(4-hydroxyphenyl)-1-[4-(pyridin-3-yl)phenyl]azetidin-2-one]
inhibition in vivo at 0.1 mg/kg [2, 3]: ≥ 50%
inhibition in vivo at 0.1 mg/kg [2, 4]: ≥ 50%
inhibition at 12.5 µM (Caco-2 cells): ≥ 60%

Cc1ccc(-c2ccc(N3C(=O)[C@H](SC[C@H](O)c4ccc(Cl)cc4)[C@H]3c3ccc(O)cc3)cc2)cn1 [Example 91, (3R,4R)-3-[(2R)-2-(4-chlorophenyl)-2-hydroxyethylthio]-4-(4-hydroxyphenyl)-1-[4-(6-methylpyridin-3-yl)phenyl]azetidin-2-one]
inhibition in vivo at 0.01 mg/kg [2, 4]: ≥ 30%
inhibition at 12.5 µM (Caco-2 cells): ≥ 60%

O=C1[C@H](SC[C@H](O)c2ccc(Cl)cc2)[C@@H](c2ccc(O)cc2)N1c1ccc(-c2ccc(Cl)nc2)cc1 [Example 94, (3R,4R)-3-[(2R)-2-(4-chlorophenyl)-2-hydroxyethylthio]-1-[4-(6-chloropyridin-3-yl)phenyl]-4-(4-hydroxyphenyl)azetidin-2-one]
inhibition in vivo at 0.1 mg/kg [2, 5]: ≥ 50%
inhibition at 12.5 µM (Caco-2 cells): ≥ 60%

O=C1[C@H](SC[C@H](O)c2ccc(Cl)cc2)[C@@H](c2ccc(O)cc2)N1c1ccc(-c2cncc(C(F)(F)F)c2)cc1 [Example 86, (3R,4R)-3-[(2R)-2-(4-chlorophenyl)-2-hydroxyethylthio]-4-(4-hydroxyphenyl)-1-[4-(5-trifluoromethylpyridin-3-yl)phenyl]azetidin-2-one]
inhibition in vivo at 0.01 mg/kg [2, 3]: ≥ 30%
inhibition at 12.5 µM (Caco-2 cells): ≥ 60%

O=C1[C@H](SC[C@H](O)c2ccc(F)cc2)[C@@H](c2ccc(O)cc2Cl)N1c1ccc(-c2cccnc2)cc1 [Example 59, (3R,4R)-3-[(2R)-2-(4-fluorophenyl)-2-hydroxyethylthio]-4-(2-chloro-4-hydroxyphenyl)-1-[4-(pyridin-3-yl)phenyl]azetidin-2-one]
inhibition in vivo at 0.01 mg/kg [2, 4]: ≥ 30%
inhibition in vivo at 0.1 mg/kg [2, 5]: ≥ 50%
inhibition in vivo at 0.1 mg/kg [2, 6]: ≥ 20%
inhibition at 12.5 µM (Caco-2 cells): ≥ 60%

Cc1cncc(-c2ccc(N3C(=O)[C@H](SC[C@H](O)c4ccc(Cl)cc4)[C@H]3c3ccc(O)cc3)cc2)c1 [Example 85, (3R,4R)-3-[(2R)-2-(4-chlorophenyl)-2-hydroxyethylthio]-4-(4-hydroxyphenyl)-1-[4-(5-methylpyridin-3-yl)phenyl]azetidin-2-one]
inhibition in vivo at 0.01 mg/kg [2, 3]: ≥ 30%
inhibition in vivo at 0.01 mg/kg [2, 4]: ≥ 30%
inhibition at 12.5 µM (Caco-2 cells): ≥ 60%

O=C1[C@H](SC[C@H](O)c2ccc(F)cc2)[C@@H](c2ccc(O)cc2)N1c1ccc(-c2ncc(F)cc2F)cc1 [Example 34, (3R,4R)-3-[(2R)-2-(4-fluorophenyl)-2-hydroxyethylthio]-1-[4-(3,5-difluoropyridin-2-yl)phenyl]-4-(4-hydroxyphenyl)azetidin-2-one]
inhibition in vivo at 0.1 mg/kg [2, 6]: ≥ 20%
inhibition at 10 µM (Caco-2 cells; concentration of 10 μM): ≥ 50%
